Test results reported in patent US20250195521A1 (Revolution Medicines, Inc., priority 2020, published 2025).
Read-outs that look alike come from different tables or passages of the source.

Legend:
[1] = system: Capan-1 cells (K-Ras G12V); test: CellTiter-Glo cell viability, Capan-1; format: cell-based, human; details: K-Ras G12V, 5-day treatment, read-out: Capan-1 Cell Viability IC50
Procedure, shortened: (§1)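 Cells seeded, compound dispensed straight into wells, 5-day exposure. Plates brought to room temperature ~30 min, CellTiter-Glo luminescence measured. Normalized to DMSO (%), 4-parameter logistic fit.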

[2] = target: K-Ras G12C(GMP-PNP) binding to BRAF RBD (Homo sapiens (Human), UniProt P01116+P62937, G12C); test: Disruption of BRAF RBD interaction with K-Ras (FRET / MOA assay), K-Ras G12C; format: biochemical; details: read-out: KRAS G12C FRET IC50
Procedure, shortened: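 Compounds promote ternary complex of nucleotide-loaded Ras (here K-Ras G12C·GMP-PNP; other Ras mutants substituted) with cyclophilin A, disrupting BRAF RBD binding. 10-point 3-fold series from 30 μM final, 3 h at 25 °C, then anti-His Eu (10 nM) and anti-GST APC (50 nM) for 1.5 h. TR-FRET ratio decrease versus DMSO gave IC50.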

[3] = system: K-Ras G12C (NCI-H358 cells); test: Potency assay: pERK in NCI-H358 cells; format: cell-based, human; details: NCI-H358 cells, 4 hours, read-out: pERK EC50 (H358 KRAS G12C)
Procedure, shortened: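 Cells plated the day before were exposed for 4 h at 37° C, 5% CO2 to a 10-point, 3-fold DMSO dilution series (10 mM top stock), in duplicate. Phospho-ERK was read by AlphaLISA SureFire Ultra or by In-Cell Western with DRAQ5 DNA stain, and IC50 came from a 4-parameter sigmoidal fit.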

[4] = system: NCI-H358 cells (K-Ras G12C); test: CellTiter-Glo cell viability, NCI-H358; format: cell-based, human; details: K-Ras G12C, 5-day treatment, read-out: H358 Cell Viability IC50
Procedure, shortened: as §1

Sequence of K-Ras G12C(GMP-PNP) binding to BRAF RBD (P01116 other isoform, or with tags, fused parts or gaps G12C): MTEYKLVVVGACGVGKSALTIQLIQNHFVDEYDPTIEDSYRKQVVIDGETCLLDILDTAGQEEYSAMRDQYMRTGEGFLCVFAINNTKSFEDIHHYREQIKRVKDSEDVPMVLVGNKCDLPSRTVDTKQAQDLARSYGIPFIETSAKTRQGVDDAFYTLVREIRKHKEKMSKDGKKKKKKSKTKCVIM
Sequence of K-Ras G12C(GMP-PNP) binding to BRAF RBD (P62937 whole entry): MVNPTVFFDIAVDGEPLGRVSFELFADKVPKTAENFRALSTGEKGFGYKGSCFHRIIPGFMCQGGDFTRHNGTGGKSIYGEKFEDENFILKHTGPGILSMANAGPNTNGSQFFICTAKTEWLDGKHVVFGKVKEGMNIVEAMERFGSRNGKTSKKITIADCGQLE

Row | IC50 [2] [nM] | EC50 ([3]; Homo sapiens) [nM] | IC50 ([4]; Homo sapiens, NCI-H358, 120 h) [nM] | SMILES | IC50 ([1]; Homo sapiens, CAPAN-1, 120 h) [nM] | IC50 [1] [nM] | EC50 [3] [nM] | IC50 [4] [nM]
1 | 10 to 100 | < 5000 | 100 to 1000 | CCn1c(-c2cccnc2[C@H](C)OC)c2c3cc(ccc31)-c1csc(n1)C[C@H](NC(=O)C1CC1)C(=O)N1CCC[C@H](N1)C(=O)OCC(C)(C)C2 [Compound A367] | 100 to 1000 |  |  | 
2 | 100 to 1000 | < 5000 | 100 to 1000 | CCn1c(-c2cccnc2[C@H](C)OC)c2c3cc(ccc31)-c1cc(O)cc(c1)C[C@H](NC(=O)[C@H](C(C)C)N(C)C(=O)[C@@H]1CCCC[C@@H]1N)C(=O)N1CCC[C@H](N1)C(=O)OCC(C)(C)C2 [Compound A395] | 100 to 1000 |  |  | 
3 | < 10 | < 5000 | 10 to 100 | CCn1c(-c2cccnc2[C@H](C)OC)c2c3cc(ccc31)-c1csc(n1)C[C@H](NC(=O)[C@H](C(C)C)N(C)C(=O)N1CCOC[C@@H]1C)C(=O)N1CCC[C@H](N1)C(=O)OCC(C)(C)C2 [Compound A403] | 10 to 100 |  |  | 
4 | 100 to 1000 | < 5000 | 10 to 100 | CCn1c(-c2cccnc2[C@H](C)OC)c2c3cc(ccc31)-c1cc(O)cc(c1)C[C@H](NC(=O)[C@H](C(C)C)N(C)C(=O)C13CC(CO1)C3)C(=O)N1CCC[C@H](N1)C(=O)OCC(C)(C)C2 [Compound A406] | 100 to 1000 |  |  | 
5 | < 10 | < 5000 |  | CCn1c(-c2cccnc2[C@H](C)OC)c2c3cc(ccc31)-c1cc(O)cc(c1)C[C@H](NC(=O)[C@H](C(C)C)N(C)C(=O)C13CCC(CO1)C3)C(=O)N1CCC[C@H](N1)C(=O)OCC(C)(C)C2 [Compound A411] |  | 100 to 1000 |  | 100 to 1000
6 | 10 to 100 | < 5000 | 10 to 100 | CCn1c(-c2cccnc2[C@H](C)OC)c2c3cc(ccc31)-c1csc(n1)C[C@H](NC(=O)[C@H](C(C)C)N(C)C(=O)N1CCO[C@@]3(CCN(C)C3)C1)C(=O)N1CCC[C@H](N1)C(=O)OCC(C)(C)C2 [Compound A436] | 10 to 100 |  |  | 
7 | 10 to 100 | < 5000 | 10 to 100 | CCn1c(-c2cc(N3CCN(C)CC3)cnc2[C@H](C)OC)c2c3cc(ccc31)-c1csc(n1)C[C@H](NC(=O)[C@H](C(C)C)N(C)C(=O)[C@@H]1CCCS1(=O)=O)C(=O)N1CCC[C@H](N1)C(=O)OCC(C)(C)C2 [Compound A440] | 10 to 100 |  |  | 
8 | 10 to 100 | < 5000 | 10 to 100 | CCn1c(-c2cccnc2[C@H](C)OC)c2c3cc(ccc31)-c1csc(n1)C[C@H](NC(=O)[C@H](C(C)C)N(C)C(=O)N1C[C@@H]3OCCN(C)[C@@H]3C1)C(=O)N1CCC[C@H](N1)C(=O)OCC(C)(C)C2 [Compound A444] | 10 to 100 |  |  | 
9 | 100 to 1000 | < 5000 | 100 to 1000 | CCn1c(-c2cccnc2[C@H](C)OC)c2c3cc(ccc31)-c1csc(n1)C[C@H](NC(=O)[C@H](C(C)C)N(C)C(=O)N1C[C@H]3CN(C)CC[C@H]31)C(=O)N1CCC[C@H](N1)C(=O)OCC(C)(C)C2 [Compound A462] | 100 to 1000 |  |  | 

Continued, compound first:

Row | SMILES | IC50 [2] [nM] | EC50 ([3]; Homo sapiens) [nM] | IC50 ([4]; Homo sapiens, NCI-H358, 120 h) [nM] | IC50 ([1]; Homo sapiens, CAPAN-1, 120 h) [nM] | IC50 [1] [nM] | EC50 [3] [nM] | IC50 [4] [nM]
10 | CCn1c(-c2cccnc2[C@H](C)OC)c2c3cc(ccc31)-c1cc(O)cc(c1)C[C@H](NC(=O)[C@H](C(C)C)N(C)C(=O)[C@H]1CCN(C(=O)[C@@H](C)N(C)C)C1)C(=O)N1CCC[C@H](N1)C(=O)OCC(C)(C)C2 [Compound A386] | 10 to 100 | < 5000 | 100 to 1000 | 100 to 1000 |  |  | 
11 | CCn1c(-c2cc(N3CCN(C)CC3)cnc2[C@H](C)OC)c2c3cc(ccc31)-c1nc(co1)C[C@H](NC(=O)[C@H]1[C@H](C)[C@@H]1C)C(=O)N1CCC[C@H](N1)C(=O)OCC(C)(C)C2 [Compound A391, (1r,2R,3S)—N-((6^3S,4S,Z)-1^1-ethyl-1^2-(2-((S)-1-methoxyethyl)-5-(4-methylpiperazin-1-yl)pyridin-3-yl)-10,10-dimethyl-5,7-dioxo-6^1,6^2,6^3,6^4,6^5,6^6-hexahydro-1^1H-8-oxa-2 (2,4)-oxazola-1 (5,3)-indola-6 (1,3)-pyridazinacycloundecaphane-4-yl)-2,3-dimethylcyclopropane-1-carboxamide] | < 10 |  |  |  | 1000 to 10000 | < 5000 | 10 to 100
12 | CCn1c(-c2cccnc2[C@H](C)OC)c2c3cc(ccc31)-c1cc(O)cc(c1)C[C@H](NC(=O)[C@H](C(C)C)N(C)C(=O)C1CCC3(CCOC3)O1)C(=O)N1CCC[C@H](N1)C(=O)OCC(C)(C)C2 (stereo partly shown) [Compound A409] | 100 to 1000 | < 5000 | 100 to 1000 | 100 to 1000 |  |  | 
13 | CCn1c(-c2cccnc2[C@H](C)OC)c2c3cc(ccc31)-c1cc(O)cc(c1)C[C@H](NC(=O)[C@H](C(C)C)N(C)C(=O)[C@@H]1[C@H]3CC[C@H](C3)[C@@H]1N)C(=O)N1CCC[C@H](N1)C(=O)OCC(C)(C)C2 [Compound A417] | 10 to 100 | < 5000 | 100 to 1000 | 1000 to 10000 |  |  | 
14 | CCO[C@@H]1c2nc(cs2)-c2ccc3c(c2)c(c(-c2cc(C4CCN(C5COC5)CC4)cnc2[C@H](C)OC)n3CC)CC(C)(C)COC(=O)[C@@H]2CCCN(N2)C(=O)[C@H]1NC(=O)[C@H]1[C@H](C)[C@@H]1C [Compound A449, (1r,2R,3S)—N-((6^3S,3S,4S,Z)-3-ethoxy-1^1-ethyl-1^2-(2-((S)-1-methoxyethyl)-5-(1-(oxetan-3-yl)piperidin-4-yl)pyridin-3-yl)-10,10-dimethyl-5,7-dioxo-6^1,6^2,6^3,6^4,6^5,6^6-hexahydro-1^1H-8-oxa-2 (4,2)-thiazola-1 (5,3)-indola-6 (1,3)-pyridazinacycloundecaphane-4-yl)-2,3-dimethylcyclopropane-1-carboxamide] | 100 to 1000 |  |  |  | 100 to 1000 | < 5000 | 100 to 1000
15 | CCn1c(-c2cccnc2[C@H](C)OC)c2c3cc(ccc31)-c1csc(n1)[C@@H](OCC1CCN(C)CC1)[C@H](NC(=O)[C@H]1C[C@@H]1C)C(=O)N1CCC[C@H](N1)C(=O)OCC(C)(C)C2 [Compound A451, (1S,2S)—N-((6^3S,3S,4S,Z)-1^1-ethyl-1^2-(2-((S)-1-methoxyethyl)pyridin-3-yl)-10,10-dimethyl-3-((1-methylpiperidin-4-yl)methoxy)-5,7-dioxo-6^1,6^2,6^3,6^4,6^5,6^6-hexahydro-1^1H-8-oxa-2 (4,2)-thiazola-1 (5,3)-indola-6 (1,3)-pyridazinacycloundecaphane-4-yl)-2-methylcyclopropane-1-carboxamide] | 100 to 1000 |  |  |  | 10 to 100 | < 5000 | 10 to 100
16 | CCOC1c2nc(cs2)-c2ccc3c(c2)c(c(-c2cc(C4CC5COCC(C4)N5C4CC4)cnc2C(C)OC)n3CC)CC(C)(C)COC(=O)C2CCCN(N2)C(=O)C1NC(=O)C1C(C)C1C [Compound A483, (1r,2R,3S)—N-((6^3S,3S,4S,Z)-12-(5-((1R,5S,7s)-9-cyclopropyl-3-oxa-9-azabicyclo[3.3.1]nonan-7-yl)-2-((S)-1-methoxyethyl)pyridin-3-yl)-3-ethoxy-1^1-ethyl-10,10-dimethyl-5,7-dioxo-6^1,6^2,6^3,6^4,6^5,6^6-hexahydro-1^1H-8-oxa-2 (4,2)-thiazola-1 (5,3)-indola-6 (1,3)-pyridazinacycloundecaphane-4-yl)-2,3-dimethylcyclopropane-1-carboxamide] | 100 to 1000 |  |  |  | 10 to 100 | < 5000 | < 10
